Results published in article PMC12426935, “On-Cell Saturation Transfer Difference NMR Spectroscopy on Ion Channels: Characterizing Negative Allosteric Modulator Binding Interactions of P2X7” (Journal of the American Chemical Society, 2025).
Like-named read-outs stand apart in the source and are kept apart here.

Experiments:
[1] = biological target: T1, rat P2X7 (rP2X7) (Rattus norvegicus, UniProt Q64663); experiment: fura-2 intracellular calcium assay on HEK-293 stable cell line expressing rat P2X7; assay type: cell-based; conditions: Rat P2X7 (Table 1), n = 3
T1 construct: expressed in transfected cells
T1 sequence (Q64663 1-595): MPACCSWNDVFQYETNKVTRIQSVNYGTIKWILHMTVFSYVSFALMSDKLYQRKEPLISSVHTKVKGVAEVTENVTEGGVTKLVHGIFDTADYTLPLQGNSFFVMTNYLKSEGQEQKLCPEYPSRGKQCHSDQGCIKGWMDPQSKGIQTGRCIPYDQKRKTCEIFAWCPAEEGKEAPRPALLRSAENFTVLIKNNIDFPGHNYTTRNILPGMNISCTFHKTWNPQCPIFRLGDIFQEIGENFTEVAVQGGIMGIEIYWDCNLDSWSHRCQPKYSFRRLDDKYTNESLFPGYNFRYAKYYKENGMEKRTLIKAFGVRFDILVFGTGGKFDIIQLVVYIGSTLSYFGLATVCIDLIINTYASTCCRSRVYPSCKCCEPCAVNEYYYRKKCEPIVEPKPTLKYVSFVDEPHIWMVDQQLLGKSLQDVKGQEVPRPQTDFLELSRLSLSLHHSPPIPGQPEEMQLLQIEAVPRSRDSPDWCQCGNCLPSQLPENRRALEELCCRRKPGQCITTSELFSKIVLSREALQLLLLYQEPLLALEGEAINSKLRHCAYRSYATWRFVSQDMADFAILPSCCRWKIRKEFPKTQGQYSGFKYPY
Procedure: (§1) Genetically edited HEK-293 cells lacking P2Y2 receptors were used to generate stable cell lines expressing human P2X7 (hP2X7), mouse P2X7 (mP2X7), rat P2X7 (rP2X7), or mutants of the hP2X7 NAM site (F88A, M105A, and F103A). Transfection was performed using lipofectamine 2000 (Fisher Scientific), and cells were subjected to Geneticin (800 μg/mL) selection for 2–3 weeks. This was followed by single cell cloning by limiting dilution in 96-well plates. Individual clones were selected for further study based on ATP-induced TO-PRO-3 uptake on a BD Cytoflex flow cytometer. Cell lines were maintained in DMEM:F12 media supplemented with 10% fetal bovine serum (PanBiotech), penicillin and streptomycin (Fisher Scientific) and kept in a humidified incubator with 5% CO2. Stable P2X7-expressing cells were kept under Geneticin selection at a concentration of 400 μg/mL. Passaging was performed twice weekly using 0.25% Trypsin-EDTA (Fisher Scientific).
(§2) P2X7 responses were measured by monitoring intracellular calcium responses using fura-2AM loaded cells. Cells were plated at 2–2.5 × 10^4 cells/well the day before experiments in 96-well plates (NUNC) coated with 50 μg/mL poly-D-lysine (Merck Millipore). A loading buffer containing 2 μM fura-2AM (HelloBio) and 250 μM sulfinpyrazone (Merck Millipore) in a low divalent buffer (145 mM NaCl, 5 mM KCl, 0.2 mM CaCl2, 10 mM HEPES, 13 mM glucose, pH 7.3) was added to cells for 45 min at 37 °C. After loading, the buffer was removed and replaced with calcium-containing extracellular solution (145 mM NaCl, 5 mM KCl, 2 mM CaCl2, 10 mM HEPES, 13 mM glucose, pH 7.3). Responses were measured using a Flexstation 3 plate reader (Molecular Devices) with dual excitation wavelengths of 340 and 380 nm and single emission wavelength of 510 nm. The sample interval was 3.5 s, and each well was recorded for 180 s. Fura-2 ratios were calculated in Softmax Pro v5.4; zero baseline was applied, and responses were measured as normalized area under the curve (AUC). Dose inhibition curves were plotted using GraphPad Prism v6 nonlinear regression (three parameter fit) and log IC50 values reported.

[2] = biological target: T2, F103A hP2X7 (Homo sapiens, UniProt Q99572, F103A); experiment: fura-2 intracellular calcium assay on HEK-293 stable cell line expressing NAM-site mutant F103A hP2X7; assay type: cell-based; conditions: for IC50: n = 3
T2 sequence (Q99572 1-595 F103A): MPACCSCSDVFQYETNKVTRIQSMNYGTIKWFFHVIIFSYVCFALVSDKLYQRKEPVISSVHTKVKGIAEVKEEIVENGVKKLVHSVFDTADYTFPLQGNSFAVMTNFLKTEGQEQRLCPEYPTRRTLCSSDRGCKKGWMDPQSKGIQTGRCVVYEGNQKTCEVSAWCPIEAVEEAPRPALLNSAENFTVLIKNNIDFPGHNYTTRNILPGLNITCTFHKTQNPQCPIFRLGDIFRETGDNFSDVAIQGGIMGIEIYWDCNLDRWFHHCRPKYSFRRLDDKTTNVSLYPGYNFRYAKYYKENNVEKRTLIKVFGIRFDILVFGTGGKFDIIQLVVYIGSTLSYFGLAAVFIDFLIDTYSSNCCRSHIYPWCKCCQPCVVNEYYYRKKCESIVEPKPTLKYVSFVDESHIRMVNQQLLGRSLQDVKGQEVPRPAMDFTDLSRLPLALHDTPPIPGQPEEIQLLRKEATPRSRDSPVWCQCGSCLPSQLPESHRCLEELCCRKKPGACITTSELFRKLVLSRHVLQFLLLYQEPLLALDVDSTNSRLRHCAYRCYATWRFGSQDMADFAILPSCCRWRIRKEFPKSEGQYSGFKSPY
Procedure: as §1, with “Transfection” for “Genetically edited HEK-293 cells lacking P2Y2 receptors were used to generate stable cell lines expressing human P2X7 (hP2X7), mouse P2X7 (mP2X7), rat P2X7 (rP2X7), or mutants of the hP2X7 NAM site (F88A, M105A, and F103A). Transfection”
as §2

O=C(NCC1(N2CCN(c3ccccc3)CC2)CCOCC1)c1cccnc1Sc1ccccc1 [JNJ-47965567]
IC50 ([1]; log IC50 ± standard error, read-out: Log IC50 (converted)): 17.4 nM | IC50 ([1]; mean in brackets, read-out: mean IC50): 17.6 nM | IC50 ([2]; F103A hP2X7, agonist ATP, log IC50 ± standard error, read-out: Log IC50 (converted)): 155 nM | IC50 ([2]; F103A hP2X7, agonist ATP, mean in brackets, read-out: mean IC50): 161 nM | IC50 ([2]; F103A hP2X7, agonist BzATP, mean in brackets, read-out: mean IC50): 59.1 nM | loss in potency (increase in IC50) at F103A relative to WT hP2X7 ([2]; F103A hP2X7 vs hP2X7): 10 fold
